From ChEMBL document CHEMBL1909046, “DrugMatrix in vitro pharmacology data”

Experiments:
[1] = molecular target: Carbonic anhydrase 2 (Homo sapiens, UniProt P00918); assay: DRUGMATRIX: Carbonic Anhydrase II enzyme inhibition (substrate: 4-Nitrophenyl acetate (4-NPA)); type: tissue-based, Erythrocyte; details: Not Active = under 50% inhibition at 10 µM
[2] = DRUGMATRIX: beta-Lactamase enzyme inhibition (substrate: Nitrocefin); design: species or system Bacillus cereus; details: Not Active = under 50% inhibition at 10 µM
[3] = molecular target: T1, Cathepsin G (Homo sapiens, UniProt P08311); type: tissue-based; details: neutrophil;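 note: inhibition of Cathepsin G enzyme activity, tested on an AMC-conjugated peptide substrate; in other assays of this panel Not Active means under 50% inhibition at 10 µM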
T1 sequence (P08311 whole entry): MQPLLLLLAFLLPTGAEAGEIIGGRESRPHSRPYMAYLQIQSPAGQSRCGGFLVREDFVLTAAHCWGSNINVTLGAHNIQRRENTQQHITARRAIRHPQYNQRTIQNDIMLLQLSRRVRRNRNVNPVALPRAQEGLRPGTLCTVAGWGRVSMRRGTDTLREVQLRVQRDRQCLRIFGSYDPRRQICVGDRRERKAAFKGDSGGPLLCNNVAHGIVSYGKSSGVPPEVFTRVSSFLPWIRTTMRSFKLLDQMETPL

[4] = molecular target: Platelet-activating factor receptor (Homo sapiens, UniProt P25105); assay: biochemical; type: tissue-based; details: platelet; note: in other assays of this panel Not Active means under 50% inhibition at 10 µM
Platelet-activating factor receptor, sequence (P25105 whole entry): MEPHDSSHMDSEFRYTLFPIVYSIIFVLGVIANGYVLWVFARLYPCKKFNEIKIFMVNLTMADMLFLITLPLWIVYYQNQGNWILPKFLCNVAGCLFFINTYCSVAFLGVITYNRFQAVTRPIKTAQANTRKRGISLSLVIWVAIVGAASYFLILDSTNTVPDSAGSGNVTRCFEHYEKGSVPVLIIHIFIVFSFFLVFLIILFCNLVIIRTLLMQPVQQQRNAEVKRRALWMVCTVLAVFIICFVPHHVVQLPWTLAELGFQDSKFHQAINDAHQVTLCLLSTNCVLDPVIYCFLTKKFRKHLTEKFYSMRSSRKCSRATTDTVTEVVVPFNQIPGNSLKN

[5] = molecular target: T2, Leukotriene C4 synthase (Cavia porcellus, UniProt A6XA80); assay: biochemical; type: tissue-based, Lung;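 note: enzyme inhibition assay of leukotriene C4 synthase, using LTA4 as the substrate; in other assays of this panel Not Active means under 50% inhibition at 10 µM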
T2 sequence (A6XA80 whole entry): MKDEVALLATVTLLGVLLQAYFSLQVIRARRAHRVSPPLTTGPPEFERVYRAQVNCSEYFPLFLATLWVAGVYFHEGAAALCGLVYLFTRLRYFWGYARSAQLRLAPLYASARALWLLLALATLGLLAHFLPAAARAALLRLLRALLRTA

[6] = molecular target: Melanocortin receptor 5 (Homo sapiens, UniProt P33032); type: cell membranes, HEK293, Membrane; details: hek293; note: in other assays of this panel Not Active means under 50% inhibition at 10 µM
Melanocortin receptor 5, sequence (P33032 whole entry): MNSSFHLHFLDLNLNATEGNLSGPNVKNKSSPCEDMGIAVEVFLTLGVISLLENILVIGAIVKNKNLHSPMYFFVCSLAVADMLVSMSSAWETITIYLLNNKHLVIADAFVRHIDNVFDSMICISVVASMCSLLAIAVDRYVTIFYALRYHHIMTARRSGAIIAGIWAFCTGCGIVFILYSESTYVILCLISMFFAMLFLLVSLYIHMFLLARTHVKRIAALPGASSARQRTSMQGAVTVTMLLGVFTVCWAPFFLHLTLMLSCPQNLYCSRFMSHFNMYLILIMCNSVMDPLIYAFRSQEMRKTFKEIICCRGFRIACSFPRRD

[7] = molecular target: T3, B2 bradykinin receptor (Homo sapiens, UniProt P30411); type: cell membranes, Membrane; details: chem-1; note: in other assays of this panel Not Active means under 50% inhibition at 10 µM
T3 sequence (P30411 whole entry): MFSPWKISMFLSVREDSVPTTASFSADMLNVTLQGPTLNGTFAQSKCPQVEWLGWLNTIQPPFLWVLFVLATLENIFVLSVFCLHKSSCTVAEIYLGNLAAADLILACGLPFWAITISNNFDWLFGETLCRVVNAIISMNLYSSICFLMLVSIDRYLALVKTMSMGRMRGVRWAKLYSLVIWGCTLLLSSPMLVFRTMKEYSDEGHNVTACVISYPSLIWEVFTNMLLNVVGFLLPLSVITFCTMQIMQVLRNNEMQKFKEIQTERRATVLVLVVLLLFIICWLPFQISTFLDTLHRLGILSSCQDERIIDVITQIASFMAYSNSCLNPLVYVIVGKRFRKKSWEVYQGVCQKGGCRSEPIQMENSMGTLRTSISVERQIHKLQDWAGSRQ

[8] = molecular target: Cannabinoid receptor 1 (Homo sapiens, UniProt P21554); type: cell membranes, Membrane; details: chem-1; note: in other assays of this panel Not Active means under 50% inhibition at 10 µM
Cannabinoid receptor 1, sequence (P21554 whole entry): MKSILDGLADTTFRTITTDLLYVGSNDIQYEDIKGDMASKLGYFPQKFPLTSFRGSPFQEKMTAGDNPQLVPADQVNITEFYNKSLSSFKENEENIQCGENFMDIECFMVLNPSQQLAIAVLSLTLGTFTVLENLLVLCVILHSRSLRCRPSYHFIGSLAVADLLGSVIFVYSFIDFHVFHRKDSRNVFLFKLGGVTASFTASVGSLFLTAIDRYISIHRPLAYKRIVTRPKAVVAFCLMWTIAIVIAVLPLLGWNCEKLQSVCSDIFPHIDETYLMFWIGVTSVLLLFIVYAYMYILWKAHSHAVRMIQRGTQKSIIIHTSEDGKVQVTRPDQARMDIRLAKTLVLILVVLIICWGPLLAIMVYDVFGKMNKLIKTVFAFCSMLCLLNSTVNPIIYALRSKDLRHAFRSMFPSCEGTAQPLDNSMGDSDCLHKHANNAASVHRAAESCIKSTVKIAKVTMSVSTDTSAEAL

[9] = molecular target: T4, Nitric oxide synthase, inducible (Mus musculus, UniProt P29477); design: species or system Escherichia coli
T4 sequence (P29477 whole entry): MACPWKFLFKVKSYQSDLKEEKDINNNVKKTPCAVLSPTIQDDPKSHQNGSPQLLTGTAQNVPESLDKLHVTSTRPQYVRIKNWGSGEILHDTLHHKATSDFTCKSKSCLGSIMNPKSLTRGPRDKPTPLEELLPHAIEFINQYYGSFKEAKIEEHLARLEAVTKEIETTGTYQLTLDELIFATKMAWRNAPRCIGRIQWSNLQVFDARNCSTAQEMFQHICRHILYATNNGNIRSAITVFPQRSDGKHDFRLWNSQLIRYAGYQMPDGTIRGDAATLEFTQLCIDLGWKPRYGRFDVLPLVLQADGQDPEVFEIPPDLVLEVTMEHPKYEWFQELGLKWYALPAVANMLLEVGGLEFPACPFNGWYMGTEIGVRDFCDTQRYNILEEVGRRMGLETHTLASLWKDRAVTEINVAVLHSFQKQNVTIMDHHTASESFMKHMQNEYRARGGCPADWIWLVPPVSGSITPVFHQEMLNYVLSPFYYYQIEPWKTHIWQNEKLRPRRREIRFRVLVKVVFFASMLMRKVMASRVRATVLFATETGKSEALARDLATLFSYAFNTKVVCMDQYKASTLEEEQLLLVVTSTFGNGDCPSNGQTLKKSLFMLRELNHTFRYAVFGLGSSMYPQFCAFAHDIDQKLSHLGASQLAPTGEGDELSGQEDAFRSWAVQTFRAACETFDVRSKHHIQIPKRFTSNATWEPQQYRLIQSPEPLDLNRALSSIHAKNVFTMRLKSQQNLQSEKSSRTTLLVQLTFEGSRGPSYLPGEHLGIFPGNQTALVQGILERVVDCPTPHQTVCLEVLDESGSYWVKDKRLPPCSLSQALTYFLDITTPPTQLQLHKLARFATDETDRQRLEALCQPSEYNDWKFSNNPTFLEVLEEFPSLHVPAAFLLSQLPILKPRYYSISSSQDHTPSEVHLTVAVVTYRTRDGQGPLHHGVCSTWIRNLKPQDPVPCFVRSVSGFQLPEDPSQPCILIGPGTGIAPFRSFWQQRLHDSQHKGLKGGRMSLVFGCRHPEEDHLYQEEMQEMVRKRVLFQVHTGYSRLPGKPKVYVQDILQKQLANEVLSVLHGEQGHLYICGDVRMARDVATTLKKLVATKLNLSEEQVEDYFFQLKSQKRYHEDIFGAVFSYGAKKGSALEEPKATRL

[10] = DRUGMATRIX: Sigma2 radioligand binding (ligand: [3H] Ifenprodil); type: cell membranes, Rattus norvegicus, Wistar, Brain, Membrane; details: Not Active = under 50% inhibition at 10 µM
[11] = molecular target: Sodium-dependent dopamine transporter (Homo sapiens, UniProt Q01959); assay: DRUGMATRIX: Dopamine Transporter radioligand binding (ligand: [125I] RTI-55); type: cell membranes, CHO-K1, Membrane; details: cho-k1; Not Active = under 50% inhibition at 10 µM
Sodium-dependent dopamine transporter, sequence (Q01959 whole entry): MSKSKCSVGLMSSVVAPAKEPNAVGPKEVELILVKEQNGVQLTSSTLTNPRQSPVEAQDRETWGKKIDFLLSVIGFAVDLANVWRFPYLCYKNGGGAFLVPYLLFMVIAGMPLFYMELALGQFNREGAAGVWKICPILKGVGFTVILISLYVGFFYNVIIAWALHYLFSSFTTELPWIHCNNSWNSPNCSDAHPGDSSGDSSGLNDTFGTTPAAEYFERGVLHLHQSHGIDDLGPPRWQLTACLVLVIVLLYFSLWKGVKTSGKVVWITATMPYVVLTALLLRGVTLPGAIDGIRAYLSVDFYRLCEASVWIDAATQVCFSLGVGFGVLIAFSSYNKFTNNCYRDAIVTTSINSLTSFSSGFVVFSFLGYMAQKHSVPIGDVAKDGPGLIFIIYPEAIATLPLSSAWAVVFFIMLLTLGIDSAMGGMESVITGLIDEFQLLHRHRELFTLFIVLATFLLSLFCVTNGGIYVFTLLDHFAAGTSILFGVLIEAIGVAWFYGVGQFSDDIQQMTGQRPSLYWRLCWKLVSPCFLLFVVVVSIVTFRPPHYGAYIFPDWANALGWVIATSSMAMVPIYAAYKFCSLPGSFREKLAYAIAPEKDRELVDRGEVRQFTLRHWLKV

[12] = DRUGMATRIX: Tumor Necrosis Factor (TNF), Non-Selective radioligand binding (ligand: [125I] TNF-alpha); type: cell membranes, Membrane; details: u-937; Not Active = under 50% inhibition at 10 µM

N=C(N)NCCCCNC(=N)N.O=S(=O)(O)O [ARCAINE SULFATE]
IC50 ([1]; erythrocyte): Not Active
IC50 [2]: Not Active
Ki [2]: Not Active
IC50 [3]: Not Active
IC50 [4]: Not Active
IC50 [5]: Not Active
IC50 [6]: Not Active
IC50 [7]: Not Active
IC50 [8]: Not Active
IC50 [9]: Not Active
IC50 [10]: Not Active
Ki [10]: Not Active
IC50 [11]: Not Active
IC50 [12]: Not Active
Ki [12]: Not Active

O=c1cc(-c2ccccc2)oc2c1ccc1ccccc12 [ALPHA-NAPHTHOFLAVONE]
IC50 ([1]; erythrocyte): Not Active
IC50 [2]: Not Active
Ki [2]: Not Active
IC50 [3]: Not Active
IC50 [4]: Not Active
IC50 [5]: Not Active
IC50 [6]: Not Active
IC50 [7]: Not Active
IC50 [8]: Not Active
IC50 [9]: Not Active
IC50 [10]: Not Active
Ki [10]: Not Active
IC50 [11]: Not Active
IC50 [12]: Not Active
Ki [12]: Not Active

CC(=O)OCC(=O)[C@@]1(OC(C)=O)[C@@H](C)C[C@H]2[C@@H]3C[C@H](F)C4=CC(=O)C=C[C@]4(C)[C@@]3(F)[C@@H](O)C[C@@]21C [DIFLORASONE DIACETATE]
IC50 ([1]; erythrocyte): Not Active
IC50 [2]: Not Active
Ki [2]: Not Active
IC50 [3]: Not Active
IC50 [4]: Not Active
IC50 [5]: Not Active
IC50 [6]: Not Active
IC50 [7]: Not Active
IC50 [8]: Not Active
IC50 [9]: Not Active
IC50 [10]: Not Active
Ki [10]: Not Active
IC50 [11]: Not Active
IC50 [12]: Not Active
Ki [12]: Not Active

O=C1OCCN1/N=C/c1ccc([N+](=O)[O-])o1 [FURAZOLIDONE]
IC50 ([1]; erythrocyte): Not Active
IC50 [2]: Not Active
Ki [2]: Not Active
IC50 [3]: Not Active
IC50 [4]: Not Active
IC50 [5]: Not Active
IC50 [6]: Not Active
IC50 [7]: Not Active
IC50 [8]: Not Active
IC50 [9]: Not Active
IC50 [10]: Not Active
Ki [10]: Not Active
IC50 [11]: Not Active
IC50 [12]: Not Active
Ki [12]: Not Active

CNC(=O)Oc1ccc2c(c1)[C@]1(C)CCN(C)[C@@H]1N2C [PHYSOSTIGMINE]
IC50 ([1]; erythrocyte): Not Active
IC50 [2]: Not Active
Ki [2]: Not Active
IC50 [3]: Not Active
IC50 [4]: Not Active
IC50 [5]: Not Active
IC50 [6]: Not Active
IC50 [7]: Not Active
IC50 [8]: Not Active
IC50 [9]: Not Active
IC50 [10]: Not Active
Ki [10]: Not Active
IC50 [11]: Not Active
IC50 [12]: Not Active
Ki [12]: Not Active

CCCC[C@@H](CC)COC(=O)c1ccccc1C(=O)OC[C@@H](CC)CCCC [BIS(2-ETHYLHEXYL)PHTHALATE]
IC50 ([1]; read-out: IC50): 66.9 µM
IC50 [2]: Not Active
Ki [2]: Not Active
IC50 [3]: Not Active
IC50 [4]: Not Active
IC50 [5]: Not Active
IC50 [6]: Not Active
IC50 [7]: Not Active
IC50 [8]: Not Active
IC50 [9]: Not Active
IC50 [10]: Not Active
Ki [10]: Not Active
IC50 [11]: Not Active
IC50 [12]: Not Active
Ki [12]: Not Active

CC[N+](CC)(CC)CCOc1cccc(OCC[N+](CC)(CC)CC)c1OCC[N+](CC)(CC)CC.[I-].[I-].[I-] [GALLAMINE TRIETHIODIDE]
IC50 ([1]; erythrocyte): Not Active
IC50 [2]: Not Active
Ki [2]: Not Active
IC50 [3]: Not Active
IC50 [4]: Not Active
IC50 [5]: Not Active
IC50 [6]: Not Active
IC50 [7]: Not Active
IC50 [8]: Not Active
IC50 [9]: Not Active
IC50 [10]: Not Active
Ki [10]: Not Active
IC50 [11]: Not Active
IC50 [12]: Not Active
Ki [12]: Not Active

CN(C)[C@@H]1C(O)=C(C(N)=O)C(=O)[C@@]2(O)C(O)=C3C(=O)c4c(O)cccc4[C@@](C)(O)[C@H]3[C@H](O)[C@@H]12 [OXYTETRACYCLINE]
IC50 ([1]; erythrocyte): Not Active
IC50 [2]: Not Active
Ki [2]: Not Active
IC50 [3]: Not Active
IC50 [4]: Not Active
IC50 [5]: Not Active
IC50 [6]: Not Active
IC50 [7]: Not Active
IC50 [8]: Not Active
IC50 [9]: Not Active
IC50 [10]: Not Active
Ki [10]: Not Active
IC50 [11]: Not Active
IC50 [12]: Not Active
Ki [12]: Not Active

Fc1ccc([C@@H]2CCNC[C@H]2COc2ccc3c(c2)OCO3)cc1 [PAROXETINE]
IC50 ([1]; erythrocyte): Not Active
IC50 [2]: Not Active
Ki [2]: Not Active
IC50 [3]: Not Active
IC50 [4]: Not Active
IC50 [5]: Not Active
IC50 [6]: Not Active
IC50 [7]: Not Active
IC50 [8]: Not Active
IC50 [9]: Not Active
IC50 [10]: Not Active
Ki [10]: Not Active
IC50 [12]: Not Active
Ki [12]: Not Active

Oc1c(Cl)cc(Cl)cc1Sc1cc(Cl)cc(Cl)c1O [BITHIONOL]
IC50 ([1]; erythrocyte): Not Active
IC50 [2]: Not Active
Ki [2]: Not Active
IC50 [3]: Not Active
IC50 [4]: Not Active
IC50 [5]: Not Active
IC50 [6]: Not Active
IC50 [7]: Not Active
IC50 [8]: Not Active
IC50 [9]: Not Active
IC50 [10]: Not Active
Ki [10]: Not Active
IC50 [12]: Not Active
Ki [12]: Not Active
